Source: patent publication US20240132450A1, “MODULATORS OF G PROTEIN-COUPLED RECEPTOR 88” (ACADIA Pharmaceuticals Inc., priority 2020, published 2024)
pEC50: −log10 of the molar value. Read-outs that look alike come from different tables or passages of the source.

Key:
[1] = biological target: T1, dopamine uptake transporter (rat DAT) (Rattus norvegicus, UniProt P23977); assay: Dopamine transporter uptake assay; format: biochemical; details: rat striatum synaptosomes, [3H]dopamine
T1 construct: is determined in rat striatum synaptosomes following [^3H]dopamine scintillation counting; from tissue; host or cells: rat striatum synaptosomes

hGPR88 receptor = hGPR88 receptor (Homo sapiens, UniProt Q9GZN0); assay: hGPR88-HEK cAMP accumulation assay; details: HEK-293 cells expressing human recombinant GPR88, forskolin 200 nM, High/Medium/Low bands
Protocol: Biological Assay 1: hGPR88-HEK cAMP Accumulation Assay
Cryopreserved vials of HEK-293 cells expressing human recombinant GPR88 receptor are re-suspended in KRH assay buffer and 5 μl of cell solution is suspended in test wells at a seeding density of 2500±500 cells per well using the multidrop to provide a final reaction volume of 10 μl containing 0.5% DMSO. Assay plate is incubated for 30 min at room temperature and the reaction is terminated by addition of 5 μl of each of the cAMP detection reagents of the cAMP Gi kit (Cisbio Bioassays, 62AM9PEJ), diluted in cell lysis buffer, to each well using the multidrop in the following order: first the cAMP-d2 conjugate, then the anti-cAMP cryptate conjugate. […] Raw counts were converted to cAMP concentrations via a standard curve before EC50 and Emax determination. Data is expressed as % decrease in forskolin stimulated cAMP compared to cells treated with vehicle alone in the same buffer and on the same plate.

[2] = Hepatocyte stability (mouse); format: in vitro ADME; details: test compound 3 μM, 60 min; for hepatocyte CLint at 3 μM: mouse, cryopreserved pooled hepatocytes in suspension, read-out: Mouse heps Clint; for Mouse heps Clint: mouse cryopreserved hepatocytes
Protocol: (iii) Hepatocyte Stability (Human, Mouse, Rat or Dog)
Test compound (3 μM) is incubated with cryopreserved hepatocytes in suspension. Samples are removed at 6 time points over the course of a 60 min experiment and test compound is analysed by LC-MS/MS. An intrinsic clearance value (CLint) with standard error and half-life (t %) are calculated. Cryopreserved pooled hepatocytes are stored in liquid nitrogen prior to use. […] The final incubation volume is 500 μL. A control incubation is included for each compound tested where lysed cells are added instead of viable cells. Two control compounds are included with each species.
The reactions are stopped by transferring 50 μL of incubate to 100 μL methanol containing internal standard at the appropriate time points. The control (lysed cells) is incubated for 60 min only. The termination plates are centrifuged at 2500 rpm at 4° C. for 30 min to precipitate the protein. Following protein precipitation, the sample supernatants are combined in cassettes of up to 4 compounds and analysed using generic LC-MS/MS conditions. From a plot of In peak area ratio (compound peak area/internal standard peak area) against time, the gradient of the line is determined. Subsequently, half-life (t %) and intrinsic clearance (CLint) are calculated using the equations below: […]

[3] = read-out: GRP88 agonist activity (EC50)

Sequence of hGPR88 receptor (Q9GZN0 whole entry): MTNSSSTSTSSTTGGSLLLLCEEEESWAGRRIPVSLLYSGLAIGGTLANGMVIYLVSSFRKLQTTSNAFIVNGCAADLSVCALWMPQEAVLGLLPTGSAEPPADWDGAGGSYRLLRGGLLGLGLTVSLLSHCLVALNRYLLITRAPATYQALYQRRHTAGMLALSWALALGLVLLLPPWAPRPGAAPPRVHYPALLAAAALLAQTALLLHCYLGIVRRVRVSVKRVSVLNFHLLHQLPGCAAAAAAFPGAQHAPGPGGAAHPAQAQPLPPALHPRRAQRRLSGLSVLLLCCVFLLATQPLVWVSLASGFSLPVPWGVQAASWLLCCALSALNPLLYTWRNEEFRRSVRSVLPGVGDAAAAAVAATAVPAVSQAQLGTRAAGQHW
T1 sequence (P23977 whole entry): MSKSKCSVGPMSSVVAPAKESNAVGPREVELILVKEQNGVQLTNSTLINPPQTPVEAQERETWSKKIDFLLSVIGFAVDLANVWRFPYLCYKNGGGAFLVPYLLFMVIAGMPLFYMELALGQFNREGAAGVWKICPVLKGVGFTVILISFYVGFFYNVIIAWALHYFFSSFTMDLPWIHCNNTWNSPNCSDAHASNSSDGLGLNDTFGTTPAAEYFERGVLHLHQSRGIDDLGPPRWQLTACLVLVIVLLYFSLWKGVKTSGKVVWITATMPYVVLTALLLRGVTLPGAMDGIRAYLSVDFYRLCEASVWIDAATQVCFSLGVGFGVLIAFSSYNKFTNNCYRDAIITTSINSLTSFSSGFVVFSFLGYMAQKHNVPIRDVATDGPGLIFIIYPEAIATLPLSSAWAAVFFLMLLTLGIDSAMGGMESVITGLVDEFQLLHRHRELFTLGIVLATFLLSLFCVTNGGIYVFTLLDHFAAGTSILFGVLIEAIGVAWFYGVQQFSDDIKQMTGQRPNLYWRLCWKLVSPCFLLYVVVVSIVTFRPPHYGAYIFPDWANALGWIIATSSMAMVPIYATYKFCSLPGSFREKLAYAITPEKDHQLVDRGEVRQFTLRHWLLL

Row | SMILES | Inhibition of dopamine uptake transporter (% inhibition at 10 μM compound) [1] | pEC50 (hGPR88 receptor; GRP88 agonist activity (EC50)) | hepatocyte CLint at 3 μM [2] | also measured
1 | COCc1ccc([C@]23C[C@](NC(=O)C4CC4c4ccccn4)(C2)C3)nc1 (mixture of isomers) [Example 136, N-(3-(5-(methoxymethyl)pyridin-2-yl)bicyclo[1.1.1]pentan-1-yl)-2-(pyridin-2-yl)cyclopropane-1-carboxamide] | 2 % inhibition | < 5.30 |  | 
2 | COCc1ccc(-c2ccc3c(c2)CCCN3C(=O)C(C)(C)Oc2ccc(F)cc2)cc1 [Example 31, 2-(4-fluorophenoxy)-1-(6-(4-(methoxymethyl)phenyl)-3,4-dihydroquinolin-1(2H)-yl)-2-methylpropan-1-one] | 52 % inhibition | > 6.00 | 76 µL/min/1e6 cells | 
3 | CCOc1ccc(-c2ccc(NC(=O)C3CC3c3ccccn3)cc2)cn1 (racemic) [Example 36, (rac-trans)-N-(4-(6-ethoxypyridin-3-yl)phenyl)-2-(pyridin-2-yl)cyclopropane-1-carboxamide] |  | 5.30 to 6.00 |  | Mouse heps Clint [2]: 80 μL/min/10^6 cells
4 | O=C(Nc1ccc(-c2ccc(CN3CCOCC3)cc2)cc1)C1CC1c1ccccn1 (single isomer, unassigned) [Example 78, (1R*,2R*)-N-(4′-(morpholinomethyl)-[1,1′-biphenyl]-4-yl)-2-(pyridin-2-yl)cyclopropane-1-carboxamide] | 17 % inhibition |  |  | 
5 | CS(=O)(=O)c1ccc(-c2ccc(NC(=O)C3CC3c3ccccn3)cc2)cc1 (racemic) [Example 85, (rac-trans)-N-(4′-(methylsulfonyl)-[1,1′-biphenyl]-4-yl)-2-(pyridin-2-yl)cyclopropane-1-carboxamide] | 12 % inhibition | > 6.00 | 14 µL/min/1e6 cells | 
6 | CCCc1ccc(-c2ccc(N(C[C@@H](N)[C@@H](C)CC)C(=O)[C@@H]3C[C@H]3c3ccccn3)cc2)cc1 [Literature comparative 2, 2-PCCA, reference compound] | 90 % inhibition |  |  | 
7 | COCc1ccc(-c2ccc(NC(=O)C3CC3c3ccccn3)nc2)cc1 (racemic) [Example 45, (rac-trans)-N-(5-(4-(methoxymethyl)phenyl)pyridin-2-yl)-2-(pyridin-2-yl)cyclopropane-1-carboxamide] | 28 % inhibition |  |  | 
8 | COCc1ccc(-c2ccc(NC(=O)C(C)(C)Oc3ccc(Cl)cc3)cc2)cc1 [Example 3] |  | > 6.00 | 30 µL/min/1e6 cells | 
9 | COCc1ccc(-c2ccc(N(C)C(=O)C(C)(C)Oc3ccc(F)cc3)cc2)cc1 [Example 13, 2-(4-fluorophenoxy)-N-(4′-(methoxymethyl)-[1,1′-biphenyl]-4-yl)-N,2-dimethylpropanamide] |  | 5.30 to 6.00 | 90 µL/min/1e6 cells | 
10 | CN(C)c1ccc(-c2ccc(NC(=O)C(C)(C)Oc3ccc(F)cc3)cc2)cn1 [Example 79, N-(4-(6-(dimethylamino)pyridin-3-yl)phenyl)-2-(4-fluorophenoxy)-2-methylpropanamide] | 21 % inhibition | > 6.00 |  | 
11 | COCc1ccc(C23CC(NC(=O)C4CC4c4ccccn4)(C2)C3)cc1 (racemic) [Example 111, (rac-trans)-N-(3-(4-(methoxymethyl)phenyl)bicyclo[1.1.1]pentan-1-yl)-2-(pyridin-2-yl)cyclopropane-1-carboxamide] | 14 % inhibition | 5.30 to 6.00 | 22 µL/min/1e6 cells | 
12 | CCOc1ccc(-c2ccc(NC(=O)C3CC3c3ccccn3)cc2)cn1 (racemic) [Example 76, (rac-trans)-N-(4-(6-ethoxypyridin-3-yl)phenyl)-2-(pyridin-2-yl)cyclopropane-1-carboxamide] |  |  |  | Inhibition of dopamine uptake transporter (% inhibition at 10 μM compound) ([1]; 10 µM): 7 % inhibition; Mouse heps Clint [2]: 30 μL/min/10^6 cells; pEC50 (hGPR88 receptor; [3]): 5.30 to 6.00
13 | CCCc1ccc(C23CC(NC(=O)C(C)(C)Oc4ccc(F)cc4)(C2)C3)cc1 [Example 9, 2-(4-fluorophenoxy)-2-methyl-N-(3-(4-propylphenyl)bicyclo[1.1.1]pentan-1-yl)propenamide] |  | 5.30 to 6.00 | 39 µL/min/1e6 cells | 
14 | COCc1ccc(-c2ccc(NC(=O)C(C)(C)Oc3ccccn3)cc2)cc1 [Example 7, N-(4′-(methoxymethyl)-[1,1′-biphenyl]-4-yl)-2-methyl-2-(pyridin-2-yloxy)propanamide] |  | 5.30 to 6.00 | 46 µL/min/1e6 cells | 
15 | CCOc1ccc(-c2ccc(NC(=O)C3CC3c3ccccn3)cc2)cn1 (racemic) [Example 75, (rac-trans)-N-(4-(6-ethoxypyridin-3-yl)phenyl)-2-(pyridin-2-yl)cyclopropane-1-carboxamide] |  |  |  | Inhibition of dopamine uptake transporter (% inhibition at 10 μM compound) ([1]; 10 µM): 5 % inhibition; pEC50 (hGPR88 receptor; [3]): 5.30 to 6.00
16 | CN(C)c1ncc(-c2ccc(NC(=O)C(C)(C)Oc3ccc(F)cc3)cc2)cn1 [Example 49, N-(4-(2-(dimethylamino)pyrimidin-5-yl)phenyl)-2-(4-fluorophenoxy)-2-methylpropanamide] | 0 % inhibition | > 6.00 |  | 
17 | CCOc1ccc(OC(C)(C)C(=O)Nc2ccc(-c3ccc(COC)cc3)cc2)cc1 [Example 70, 2-(4-ethoxyphenoxy)-N-(4′-(methoxymethyl)-[1,1′-biphenyl]-4-yl)-2-methylpropanamide] |  | > 6.00 | 74 µL/min/1e6 cells | 
18 | COCc1ccc(-c2ccc(NC(=O)C3CC3c3ccccn3)nc2)cc1 (racemic) [Example 121, (rac-trans)-N-(5-(4-(methoxymethyl)phenyl)pyridin-2-yl)-2-(pyridin-2-yl)cyclopropane-1-carboxamide] |  |  | 30 µL/min/1e6 cells | pEC50 (hGPR88 receptor; [3]): 5.30 to 6.00
19 | CCOc1ccc(-c2ccc(NC(=O)C(C)(C)Oc3ccc(F)cc3)cc2)cn1 [Example 26, N-(4-(6-ethoxypyridin-3-yl)phenyl)-2-(4-fluorophenoxy)-2-methylpropanamide] | 7 % inhibition | > 6.00 | 70 µL/min/1e6 cells | 
20 | COCc1ccc(-c2ccc(NC(=O)C3CC3c3ccccn3)cc2)cc1 (racemic) [Example 18, N-(4′-(methoxymethyl)-[1,1′-biphenyl]-4-yl)-2-(pyridin-2-yl)cyclopropane-1-carboxamide] |  |  |  | Inhibition of dopamine uptake transporter (% inhibition at 10 μM compound) ([1]; 10 µM): 0 % inhibition
21 | COCc1ccc([C@]23C[C@](NC(=O)C(C)(C)Oc4ccc(F)cc4)(C2)C3)cc1 [Example 135, 2-(4-fluorophenoxy)-N-(3-(4-(methoxymethyl)phenyl)bicyclo[1.1.1]pentan-1-yl)-2-methylpropanamide] | 8 % inhibition | 5.30 to 6.00 |  | 
22 | CCCc1ccc([C@]23C[C@](NC(=O)C4CC4c4ccccn4)(C2)C3)nc1 (mixture of isomers) [Example 137, N-(3-(5-propylpyridin-2-yl)bicyclo[1.1.1]pentan-1-yl)-2-(pyridin-2-yl)cyclopropane-1-carboxamide] | 10 % inhibition | 5.30 to 6.00 |  | 
23 | CCCc1ccc(C23CC(NC(=O)C4CC4c4ccccn4)(C2)C3)cc1 (racemic) [Example 8, (rac-trans)-N-(3-(4-propylphenyl)bicyclo[1.1.1]pentan-1-yl)-2-(pyridin-2-yl)cyclopropane-1-carboxamide] |  | > 6.00 | 55 µL/min/1e6 cells | 
24 | COCc1ccc(-c2ccc(NC(=O)C(C)(C)Oc3ccc(C#N)cc3)cc2)cc1 [Example 68, 2-(4-cyanophenoxy)-N-(4′-(methoxymethyl)-[1,1′-biphenyl]-4-yl)-2-methylpropanamide] |  | > 6.00 | 37 µL/min/1e6 cells | 
25 | CN(C)Cc1ccc(-c2ccc(NC(=O)C(C)(C)Oc3ccc(F)cc3)cc2)cc1 [Example 17, N-(4′-((dimethylamino)methyl)-[1,1′-biphenyl]-4-yl)-2-(4-fluorophenoxy)-2-methylpropanamide] |  | 5.30 to 6.00 | 37 µL/min/1e6 cells | 
26 | CCCc1ccc(C23CC(NC(=O)C4CC4c4ccccn4)(C2)C3)cc1 (racemic) [Example 35, (rac-trans)-N-(3-(4-propylphenyl)bicyclo[1.1.1]pentan-1-yl)-2-(pyridin-2-yl)cyclopropane-1-carboxamide] |  | > 6.00 |  | Mouse heps Clint [2]: 49 μL/min/10^6 cells
27 | COCc1ccc(-c2ccc(NC(=O)C3CC3c3ccccn3)cc2)cc1 (single isomer, unassigned) [Example 18, N-(4′-(methoxymethyl)-[1,1′-biphenyl]-4-yl)-2-(pyridin-2-yl)cyclopropane-1-carboxamide] |  | > 6.00 | 70 µL/min/1e6 cells | 
